Measured values taken from patent US20230365647A1 (priority 2020, published 2023).
Where two headings read alike, the source gives them in different places. Where no end group is shown, it is not given here.

Experiments:
[1] = molecular target: T1, PLY (Streptococcus pneumoniae serotype 4, UniProt P0C2J9); conditions: for inhibition of PLY-induced hemolysis: human
[2] = molecular target: T2, LLO (Listeria monocytogenes serotype 4a, UniProt B8DGM3); conditions: for inhibition of LLO-induced hemolysis: human
[3] = mouse, in vivo
[4] = molecular target: T1, PLY; assay type: binding
[5] = molecular target: T1, PLY; assay type: cell-based
[6] = molecular target: T1, PLY; assay type: cell-based; remark: listed apart in the source
[7] = molecular target: T2, LLO; assay type: cell-based
[8] = tested on: pneumococcal strain T4 (TIGR4 of serotype 4); assay type: binding
[9] = tested on: S. pneumoniae T4; assay type: cell-based, Streptococcus pneumoniae
[10] = molecular target: T1, PLY; assay type: cell-based; remark: listed apart in the source
[11] = molecular target: T1, PLY; assay type: cell-based; remark: listed apart in the source
[12] = tested on: wild-type pneumococci T4 (TIGR4); assay type: cell-based
[13] = tested on: pneumococci, type 2 (D39) or type 4 (T4); assay type: cell-based, Streptococcus pneumoniae
[14] = tested on: pneumococci of type 4 or type 2; assay type: cell-based, Streptococcus pneumoniae
[15] = tested on: S. pneumoniae T4R; assay type: cell-based
[16] = tested on: S. pneumoniae T4; set-up: species or system zebrafish (Danio renio); conditions: in vivo
[17] = molecular target: T2, LLO; assay type: binding
[18] = tested on: human THP-1 derived macrophages; assay type: cell-based

Sequence: FTWSDGSPVSYEN [P2, FTWSDGSPVSYEN]
- inhibition of PLY-induced hemolysis [1]: up to 50%
- inhibition of LLO-induced hemolysis [2]: ~35%
- clinical symptoms [3]: did not develop any clinical symptoms
- toxicity by lung histology analysis [3]: not toxic

Sequence: LVGNIEQNEHSVI [CP2]
- binding to PLY (ELISA) [4]: only background levels of binding
- protection of THP-1 macrophages from PLY cytolysis (live/dead stain) [5]: not
- cell death of macrophages induced by PLY (LDH release) [6]: no significant effect
- cell death of macrophages induced by LLO (LDH release) [7]: no significant effect
- binding of FITC-labelled peptide to PLY-producing strain T4 [8]: did not show any binding
- hemolytic activity of pneumococcal strain T4 [9]: no effect
- LDH release into the supernatant of lung tissue model [10]: did not show any significant reduction
- release of IL-8 in lung tissue model [11]: not
- release of TNF-α in lung tissue model [11]: not
- number of invading bacteria in lung epithelial model (CFU) [12]: not
- number of intracellular bacteria in DCs (CFU) [13]: did not show any significant difference
- intracellular bacteria in DCs (fluorescence microscopy) [14]: not
- co-localization of intracellular T4R with autophagy marker LC3B [15]: did not promote co-localization
- survival of infected zebrafish embryos [16]: did not show any significant effect
- PLY-induced hemolysis, residual red blood cell pellet [1]: Complete hemolysis
- LLO-induced hemolysis, residual red blood cell pellet [2]: Complete hemolysis

Sequence: DCTSAGRSDGWLW [CP1]
- binding to PLY (ELISA) [4]: only background levels of binding
- PLY-induced hemolysis, residual red blood cell pellet [1]: Complete hemolysis
- LLO-induced hemolysis, residual red blood cell pellet [2]: Complete hemolysis

Sequence: YENWAYGEPNNYQ [P3, YENWAYGEPNNYQ]
- binding to PLY (ELISA) [4]: bind dose-dependently
- binding to LLO (ELISA) [17]: bound dose-dependently
- cell death of macrophages induced by PLY (LDH release) ([6]; 18 h): significantly reduced cell death
- cell death of macrophages induced by LLO (LDH release) ([7]; 18 h): significantly reduced cell death
- release of IL-8 [18]: significantly reduced
- release of IL-12 [18]: significantly reduced
- release of TNF-α [18]: significantly reduced
- PLY-induced hemolysis, increasing concentrations of the peptides [1]: dose-dependently inhibited
- inhibition of PLY-induced hemolysis [1]: up to 50%
- inhibition of LLO-induced hemolysis [2]: ~35%
